The assay relates to Escherichia coli (E. coli) strain CFT073 ATCC 700928. Format: cell-based. To be noted: ATCC 700928, 22 h. The procedure, abridged: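 Broth microdilution MIC per CLSI M07-A8 in cation-adjusted Mueller Hinton II broth with 0.002% Tween-80. Ten-point 2-fold series topped at 64, 4, 0.5 or 0.13 μg/mL depending on protocol. Final inoculum OD600 0.0005, incubated 22 h at 35 °C.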

The structures appear in SMILES notation. In brackets after ≈: the same amount, converted by molar mass. *1 amine or outer side, *2 acyl side, *3 side chain or, on linkers, in order; H or OH if unused. Where a SMILES comes first, the peptide text is derived from it. [ ]: non-standard residue; d: D form. The star is where a group is joined. X12 = C[C@H](CO[C@H](CC12CC3CC(CC(C3)C1)C2)[C@@H](C)C(=O)[*:2])N[*:1]; X16 = CCCCCC[C@@H](O[C@@H](C)CN[*:1])[C@@H](C)C(=O)[*:2]; X5 = CCCC[C@@H](OC[C@@H](C)N[*:1])[C@@H](CCCC)C(=O)[*:2]; X2 = CCCCCC[C@@H](OC[C@@H](C)N[*:1])[C@@H](C)C(=O)[*:2]; X21 = C[C@H](CO[C@@H]1CCCCCC[C@H]1C(=O)[*:2])N[*:1]; X14 = CCCCCC[C@@H](OCCN[*:1])[C@@H](C)C(=O)[*:2]; Cyclobutyl(trans-3-NH2) = N[C@H]1C[C@H](*)C1; Gly(cHept) = N[C@H](C(=O)O)C1CCCCCC1; Propyl(3-guanidino) = N=C(N)NCCC*; aThr = C[C@H](O)[C@H](N)C(=O)O; NMeL = CN[C@@H](CC(C)C)C(=O)O; Chg = N[C@H](C(=O)O)C1CCCCC1; NMeNva = CCC[C@H](NC)C(=O)O; Propyl(3-NMe2) = CN(C)CCC*; Dap = NC[C@H](N)C(=O)O; Propyl(3-NH2) = NCCC*; X4 = NCC(F)(F)C*; X10 = NCCCC*

For the molecule `CCCCCC[C@H]1OC(=O)CNC(=O)[C@H]([C@H](C)O)NC(=O)[C@H](CN)NC(=O)[C@H](C2CCCCC2)NC(=O)[C@H](CC(C)C)N(C)C(=O)[C@@H]1CC(F)(F)F` [Example 68, (6S,9S,12S,15S,18R,19R)-9-(Aminomethyl)-12-cyclohexyl-19-hexyl-6-((S)-1-hydroxyethyl)-15-isobutyl-16-methyl-18-(2,2,2-trifluoroethyl)-1-oxa-4,7,10,13,16-pentaazacyclononadecane-2,5,8,11,14,17-hexaone], the minimum inhibitory concentration (MIC) (usually the lowest concentration that inhibits growth of the organism) was determined as 3.1 µM (≈ 2.32 µg/mL). The value for `CCCCCC[C@H]1OC[C@@H](C)NC(=O)[C@H]([C@H](C)OCCCN)NC(=O)[C@H](CN)NC(=O)[C@H](C2CCCCC2)NC(=O)[C@H](CC(C)C)N(C)C(=O)[C@@H]1C` [Example 70, (3R,6S,9S,12S,15S,18R,19R)-9-(Aminomethyl)-6-((S)-1-(3-aminopropoxy)ethyl)-12-cyclohexyl-19-hexyl-15-isobutyl-3,16,18-trimethyl-1-oxa-4,7,10,13,16-pentaazacyclononadecane-5,8,11,14,17-pentaone] (cyclo([Chg][Dap][aThr](Propyl(3-NH2))[X2][NMeL])) was 15 µM (≈ 11.1 µg/mL); that for `CCCCCC[C@H]1O[C@@H](C)CNC(=O)[C@H]([C@H](C)O)NC(=O)[C@H](CN)NC(=O)[C@H](C2CCCCC2)NC(=O)[C@H](CC(C)C)N(C)C(=O)[C@@H]1C` [Example 71, (2S,6S,9S,12S,15S,18R,19R)-9-(Aminomethyl)-12-cyclohexyl-19-hexyl-6-((S)-1-hydroxyethyl)-15-isobutyl-2,16,18-trimethyl-1-oxa-4,7,10,13,16-pentaazacyclononadecane-5,8,11,14,17-pentaone] (cyclo([Chg][Dap][aThr][X16][NMeL])) was 12 µM (≈ 8.17 µg/mL); that for `CCCCCC[C@H]1OC(=O)CNC(=O)[C@H](CNC(=O)C2CNC2)NC(=O)[C@H](CN)NC(=O)[C@H](C2CCCCC2)NC(=O)[C@H](CC(C)C)N(C)C(=O)[C@@H]1C` [Example 72, N-(((6S,9S,12S,15S,18R,19R)-9-(Aminomethyl)-12-cyclohexyl-19-hexyl-15-isobutyl-16,18-dimethyl-2,5,8,11,14,17-hexaoxo-1-oxa-4,7,10,13,16-pentaazacyclononadecan-6-yl)methyl)azetidine-3-carboxamide] was 12 µM (≈ 8.99 µg/mL).

`CCCCCC[C@H]1OC[C@@H](C)NC(=O)[C@H](COCCCCN)NC(=O)[C@H](CN)NC(=O)[C@H](C2CCCCC2)NC(=O)[C@H](CC(C)C)N(C)C(=O)[C@@H]1C` [Example 73, (3R,6S,9S,12S,15S,18R,19R)-6-((4-Aminobutoxy)methyl)-9-(aminomethyl)-12-cyclohexyl-19-hexyl-15-isobutyl-3,16,18-trimethyl-1-oxa-4,7,10,13,16-pentaazacyclononadecane-5,8,11,14,17-pentaone] (cyclo([Chg][Dap]S(X10)[X2][NMeL])) had an MIC of 6.3 µM (≈ 4.65 µg/mL). The molecule `CC(C)C[C@H]1C(=O)N[C@@H](C2CCCCC2)C(=O)N[C@@H](CN)C(=O)N[C@@H]([C@H](C)O)C(=O)N[C@H](C)CO[C@H](CC23CC4CC(CC(C4)C2)C3)[C@@H](C)C(=O)N1C` [Example 74, (3R,6S,9S,12S,15S,18R,19R)-19-(((1r,3R,5S)-Adamantan-1-yl)methyl)-9-(aminomethyl)-12-cyclohexyl-6-((S)-1-hydroxyethyl)-15-isobutyl-3,16,18-trimethyl-1-oxa-4,7,10,13,16-pentaazacyclononadecane-5,8,11,14,17-pentaone] (cyclo([Chg][Dap][aThr][X12][NMeL])) displayed a minimum inhibitory concentration (MIC) of 1.6 µM (≈ 1.19 µg/mL).

In turn, `CC(C)C[C@H]1C(=O)N[C@@H](C2CCCCC2)C(=O)N[C@@H](CN)C(=O)N[C@@H](COCCCN)C(=O)NCC(=O)O[C@H](CCCCC(C)(C)C)[C@@H](C)C(=O)N1C` [Example 75, (6S,9S,12S,15S,18R,19R)-9-(Aminomethyl)-6-((3-aminopropoxy)methyl)-12-cyclohexyl-19-(5,5-dimethylhexyl)-15-isobutyl-16,18-dimethyl-1-oxa-4,7,10,13,16-pentaazacyclononadecane-2,5,8,11,14,17-hexaone] yielded an MIC of 3.1 µM (≈ 2.33 µg/mL). Then `CCCCCC[C@H]1OC[C@@H](C)NC(=O)[C@H](COc2ccc(CN)cc2)NC(=O)[C@H](CN)NC(=O)[C@H](C2CCCCC2)NC(=O)[C@H](CC(C)C)N(C)C(=O)[C@@H]1C` [Example 76, (3R,6S,9S,12S,15S,18R,19R)-9-(Aminomethyl)-6-((4-(aminomethyl)phenoxy)methyl)-12-cyclohexyl-19-hexyl-15-isobutyl-3,16,18-trimethyl-1-oxa-4,7,10,13,16-pentaazacyclononadecane-5,8,11,14,17-pentaone], with 6.3 µM (≈ 4.86 µg/mL). On to `CCCC[C@H]1OC[C@@H](C)NC(=O)[C@H]([C@H](C)O)NC(=O)[C@H](CN)NC(=O)[C@H](C2CCCCC2)NC(=O)[C@H](CCC)N(C)C(=O)[C@@H]1CCCC` [Example 77, (3R,6S,9S,12S,15S,18R,19R)-9-(Aminomethyl)-18,19-dibutyl-12-cyclohexyl-6-((S)-1-hydroxyethyl)-3,16-dimethyl-15-propyl-1-oxa-4,7,10,13,16-pentaazacyclononadecane-5,8,11,14,17-pentaone] (cyclo([Chg][Dap][aThr][X5][NMeNva])), for which the MIC came out at 4.4 µM (≈ 3 µg/mL). Then `CCCCCC[C@H]1OC[C@@H](C)NC(=O)[C@H](COCCCN(C)C)NC(=O)[C@H](CN)NC(=O)[C@H](C2CCCCC2)NC(=O)[C@H](CC(C)C)N(C)C(=O)[C@@H]1C` [Example 78, (3R,6S,9S,12S,15S,18R,19R)-9-(Aminomethyl)-12-cyclohexyl-6-((3-(dimethylamino)propoxy)methyl)-19-hexyl-15-isobutyl-3,16,18-trimethyl-1-oxa-4,7,10,13,16-pentaazacyclononadecane-5,8,11,14,17-pentaone] (cyclo([Chg][Dap]S(Propyl(3-NMe2))[X2][NMeL])), with 25 µM (≈ 18.8 µg/mL). `CCC[C@H]1C(=O)N[C@@H](C2CCCCCC2)C(=O)N[C@@H](CN)C(=O)N[C@@H]([C@H](C)O)C(=O)NCC(=O)O[C@H](CC2CC3CCC2CC3)[C@@H](C)C(=O)N1C` (stereo partly drawn) [Example 79, (6S,9S,12S,15S,18R,19R)-9-(Aminomethyl)-19-(bicyclo[2.2.2]octan-2-ylmethyl)-12-cycloheptyl-6-((S)-1-hydroxyethyl)-16,18-dimethyl-15-propyl-1-oxa-4,7,10,13,16-pentaazacyclononadecane-2,5,8,11,14,17-hexaone]: the MIC came to 0.78 µM (≈ 0.561 µg/mL). For the molecule `CCCCCC[C@H]1OCCNC(=O)[C@H](CO[C@H]2C[C@H](N)C2)NC(=O)[C@H](CN)NC(=O)[C@H](C2CCCCCC2)NC(=O)[C@H](CCC)N(C)C(=O)[C@@H]1C` [Example 80, (6S,9S,12S,15S,18R,19R)-6-(((1r,3S)-3-Aminocyclobutoxy)methyl)-9-(aminomethyl)-12-cycloheptyl-19-hexyl-16,18-dimethyl-15-propyl-1-oxa-4,7,10,13,16-pentaazacyclononadecane-5,8,11,14,17-pentaone] (cyclo([Dap]S(Cyclobutyl(trans-3-NH2))[X14][NMeNva][Gly(cHept)])), the MIC amounted to 12 µM (≈ 8.66 µg/mL). In turn, `CCCCCC[C@H]1OC[C@@H](C)NC(=O)[C@H](COCC(F)(F)CN)NC(=O)[C@H](CN)NC(=O)[C@H](C2CCCCC2)NC(=O)[C@H](CC(C)C)N(C)C(=O)[C@@H]1C` [Example 81, (3R,6S,9S,12S,15S,18R,19R)-6-((3-Amino-2,2-difluoropropoxy)methyl)-9-(aminomethyl)-12-cyclohexyl-19-hexyl-15-isobutyl-3,16,18-trimethyl-1-oxa-4,7,10,13,16-pentaazacyclononadecane-5,8,11,14,17-pentaone] (cyclo([Chg][Dap]S(X4)[X2][NMeL])) registered a minimum inhibitory concentration (MIC) of 12 µM (≈ 9.12 µg/mL).

The molecule `CCCCCC[C@H]1OC[C@@H](C)NC(=O)[C@H](COCCCNC(=N)N)NC(=O)[C@H](CN)NC(=O)[C@H](C2CCCCC2)NC(=O)[C@H](CC(C)C)N(C)C(=O)[C@@H]1C` [Example 82, 1-(3-(((3R,6S,9S,12S,15S,18R,19R)-9-(Aminomethyl)-12-cyclohexyl-19-hexyl-15-isobutyl-3,16,18-trimethyl-5,8,11,14,17-pentaoxo-1-oxa-4,7,10,13,16-pentaazacyclononadecan-6-yl)methoxy)propyl)guanidine] (cyclo([Chg][Dap]S(Propyl(3-guanidino))[X2][NMeL])) had an MIC of 4.4 µM (≈ 3.37 µg/mL).

Turning to `CCC[C@H]1C(=O)N[C@@H](C2CCCCCC2)C(=O)N[C@@H](CN)C(=O)N[C@@H]([C@H](C)O)C(=O)NCC(=O)O[C@H](C[C@@H]2C[C@@H]3CC[C@@H](C3)C2)[C@@H](C)C(=O)N1C` [Example 83, (6S,9S,12S,15S,18R,19R)-9-(Aminomethyl)-19-(((1R,3s,5S)-bicyclo[3.2.1]octan-3-yl)methyl)-12-cycloheptyl-6-((S)-1-hydroxyethyl)-16,18-dimethyl-15-propyl-1-oxa-4,7,10,13,16-pentaazacyclononadecane-2,5,8,11,14,17-hexaone], the MIC was 0.39 µM (≈ 0.28 µg/mL). The value for `CCC[C@H]1C(=O)N[C@@H](C2CCCCCC2)C(=O)N[C@@H](CN)C(=O)N[C@@H]([C@H](C)O)C(=O)NCC(=O)O[C@H](CC2CC3(CCC3)C2)[C@@H](C)C(=O)N1C` [Example 84, (6S,9S,12S,15S,18R,19R)-9-(Aminomethyl)-12-cycloheptyl-6-((S)-1-hydroxyethyl)-16,18-dimethyl-15-propyl-19-(spiro[3.3]heptan-2-ylmethyl)-1-oxa-4,7,10,13,16-pentaazacyclononadecane-2,5,8,11,14,17-hexaone] was 0.78 µM (≈ 0.55 µg/mL). For `CCC[C@H]1C(=O)N[C@@H](C2CCCCC2)C(=O)N[C@@H](CN)C(=O)N[C@@H]([C@H](C)O)C(=O)N[C@H](C)CO[C@@H]2CCCCCC[C@H]2C(=O)N1C` [Example 86, (3R,6S,9S,12S,15S,17aR,23aR)-9-(Aminomethyl)-12-cyclohexyl-6-((S)-1-hydroxyethyl)-3,16-dimethyl-15-propyloctadecahydrocycloocta[r][1]oxa[4,7,10,13,16]pentaazacyclononadecine-5,8,11,14,17(2H)-pentaone] (cyclo([Chg][Dap][aThr][X21][NMeNva])), the MIC was 50 µM (≈ 32.5 µg/mL).
